Source: patent US8791264B2 (Purdue Pharma L.P., priority 2006, dated 2014)

How the values were obtained:
[1] = target: T1, N-type calcium channel (NTCC) (Homo sapiens, UniProt Q00975); assay: FLIPR calcium mobilization assay for N-type calcium channel; assay type: cell-based; details: calcium mobilization in vitro assay; differentiated IMR32 cells
T1 construct: host or cells: IMR32 cells differentiated with dibutyryl cAMP and bromodeoxyuridine
Outline: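 Differentiated IMR32 cells (8 days, dibutyryl cAMP and BrdU) loaded with 3 μM Fluo-4 during 90 mM KCl pre-stimulation, with compound at about 846 pM to 17 μM plus 5 μM nitrendipine. After washes in compound, FLIPR read basal fluorescence 315 s, then 45 s after KCl addition (final 90 mM).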

[2] = target: T2, recombinant rat L-type calcium channel (LTCC) subunits (α1c, α2δ, and β1) (Rattus norvegicus, UniProt P22002); assay: FLIPR calcium mobilization assay for L-type calcium channel; assay type: cell-based; details: calcium mobilization in vitro assay; HEK293 cells expressing rat LTCC
T2 construct: expressed in transfected cells
T2 sequence (P22002 whole entry): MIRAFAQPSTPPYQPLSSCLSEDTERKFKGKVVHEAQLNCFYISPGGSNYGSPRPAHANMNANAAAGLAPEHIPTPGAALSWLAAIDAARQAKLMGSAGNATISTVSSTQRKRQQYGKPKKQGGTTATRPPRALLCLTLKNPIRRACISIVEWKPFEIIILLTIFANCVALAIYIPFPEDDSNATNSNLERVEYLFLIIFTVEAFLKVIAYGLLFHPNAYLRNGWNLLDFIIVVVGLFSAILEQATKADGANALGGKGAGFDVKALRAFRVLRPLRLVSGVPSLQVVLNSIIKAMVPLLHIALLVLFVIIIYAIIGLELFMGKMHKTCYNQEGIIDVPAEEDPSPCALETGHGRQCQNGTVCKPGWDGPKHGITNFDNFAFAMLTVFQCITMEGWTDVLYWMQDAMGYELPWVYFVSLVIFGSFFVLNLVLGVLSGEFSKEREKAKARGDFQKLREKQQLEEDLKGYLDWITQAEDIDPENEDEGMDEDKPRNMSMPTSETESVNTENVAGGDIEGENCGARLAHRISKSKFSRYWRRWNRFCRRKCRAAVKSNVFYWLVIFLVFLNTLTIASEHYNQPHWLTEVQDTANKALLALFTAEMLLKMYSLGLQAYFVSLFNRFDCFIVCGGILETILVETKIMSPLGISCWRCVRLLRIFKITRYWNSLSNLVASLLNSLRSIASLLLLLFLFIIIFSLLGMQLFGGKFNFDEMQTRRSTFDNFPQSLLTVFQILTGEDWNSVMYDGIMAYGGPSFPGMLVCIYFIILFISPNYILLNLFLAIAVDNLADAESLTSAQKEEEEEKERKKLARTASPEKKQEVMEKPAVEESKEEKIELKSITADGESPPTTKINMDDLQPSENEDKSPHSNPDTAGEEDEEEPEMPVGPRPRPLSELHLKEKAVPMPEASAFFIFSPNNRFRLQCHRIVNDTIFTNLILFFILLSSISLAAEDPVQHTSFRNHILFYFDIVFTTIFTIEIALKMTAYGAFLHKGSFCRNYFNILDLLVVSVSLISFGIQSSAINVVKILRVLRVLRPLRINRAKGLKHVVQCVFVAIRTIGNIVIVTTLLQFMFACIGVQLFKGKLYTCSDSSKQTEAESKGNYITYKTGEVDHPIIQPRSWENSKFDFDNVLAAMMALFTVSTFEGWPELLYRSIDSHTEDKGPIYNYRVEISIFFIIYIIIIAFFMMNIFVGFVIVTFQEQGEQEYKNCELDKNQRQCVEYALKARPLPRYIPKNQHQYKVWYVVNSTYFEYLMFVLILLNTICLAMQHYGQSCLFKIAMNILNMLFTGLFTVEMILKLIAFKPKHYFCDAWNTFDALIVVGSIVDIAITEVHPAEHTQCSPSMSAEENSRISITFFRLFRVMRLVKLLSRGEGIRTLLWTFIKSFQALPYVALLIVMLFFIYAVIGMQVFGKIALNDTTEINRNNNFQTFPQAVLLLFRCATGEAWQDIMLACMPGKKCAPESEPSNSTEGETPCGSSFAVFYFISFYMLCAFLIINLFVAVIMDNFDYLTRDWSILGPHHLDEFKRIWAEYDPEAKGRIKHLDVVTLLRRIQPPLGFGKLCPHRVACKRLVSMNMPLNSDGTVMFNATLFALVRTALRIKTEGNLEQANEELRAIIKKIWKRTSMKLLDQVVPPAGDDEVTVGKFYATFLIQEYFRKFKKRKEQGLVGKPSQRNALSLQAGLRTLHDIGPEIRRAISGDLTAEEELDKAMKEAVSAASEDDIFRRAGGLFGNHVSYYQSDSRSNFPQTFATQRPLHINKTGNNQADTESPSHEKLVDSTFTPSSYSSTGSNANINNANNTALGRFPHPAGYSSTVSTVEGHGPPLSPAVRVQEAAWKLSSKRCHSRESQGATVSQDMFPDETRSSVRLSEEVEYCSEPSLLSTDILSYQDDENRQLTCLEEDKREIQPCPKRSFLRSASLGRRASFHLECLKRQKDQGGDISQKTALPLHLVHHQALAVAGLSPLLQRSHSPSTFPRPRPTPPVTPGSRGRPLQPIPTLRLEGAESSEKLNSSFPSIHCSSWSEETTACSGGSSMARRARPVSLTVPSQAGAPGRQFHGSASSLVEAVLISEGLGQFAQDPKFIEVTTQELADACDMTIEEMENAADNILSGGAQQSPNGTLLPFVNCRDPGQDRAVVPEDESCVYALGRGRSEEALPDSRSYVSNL
T2 sequence (P54290 25-944 partner limits assumed): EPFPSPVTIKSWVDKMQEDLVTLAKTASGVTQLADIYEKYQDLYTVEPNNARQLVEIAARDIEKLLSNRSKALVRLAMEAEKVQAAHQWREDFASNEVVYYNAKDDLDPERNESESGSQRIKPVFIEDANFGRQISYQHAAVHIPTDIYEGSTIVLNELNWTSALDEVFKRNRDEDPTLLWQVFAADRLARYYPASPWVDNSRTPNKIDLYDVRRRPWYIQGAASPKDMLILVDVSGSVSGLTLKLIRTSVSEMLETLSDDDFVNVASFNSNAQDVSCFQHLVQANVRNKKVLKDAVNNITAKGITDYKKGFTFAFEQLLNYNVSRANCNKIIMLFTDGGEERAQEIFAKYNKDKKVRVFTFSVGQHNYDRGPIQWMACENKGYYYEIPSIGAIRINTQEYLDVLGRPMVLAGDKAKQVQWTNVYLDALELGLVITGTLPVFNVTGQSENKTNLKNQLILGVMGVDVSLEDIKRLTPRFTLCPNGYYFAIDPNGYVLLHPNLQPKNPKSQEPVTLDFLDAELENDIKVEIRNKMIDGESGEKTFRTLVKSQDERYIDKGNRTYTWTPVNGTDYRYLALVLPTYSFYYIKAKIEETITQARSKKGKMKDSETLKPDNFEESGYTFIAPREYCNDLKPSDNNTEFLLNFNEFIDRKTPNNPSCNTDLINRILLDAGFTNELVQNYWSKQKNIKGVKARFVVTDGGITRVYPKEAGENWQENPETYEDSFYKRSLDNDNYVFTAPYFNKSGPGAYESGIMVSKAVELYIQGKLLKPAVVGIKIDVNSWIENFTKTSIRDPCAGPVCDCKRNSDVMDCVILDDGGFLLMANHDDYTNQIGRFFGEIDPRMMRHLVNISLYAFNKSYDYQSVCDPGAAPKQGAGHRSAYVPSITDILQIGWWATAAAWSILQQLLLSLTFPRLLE
T2 sequence (P54290 945-1091 partner limits assumed): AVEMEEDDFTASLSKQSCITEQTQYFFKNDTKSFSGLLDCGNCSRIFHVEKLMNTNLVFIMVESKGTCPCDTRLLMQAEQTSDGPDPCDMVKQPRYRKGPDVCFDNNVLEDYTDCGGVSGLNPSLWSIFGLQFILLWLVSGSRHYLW
T2 sequence (P54283 whole entry partner): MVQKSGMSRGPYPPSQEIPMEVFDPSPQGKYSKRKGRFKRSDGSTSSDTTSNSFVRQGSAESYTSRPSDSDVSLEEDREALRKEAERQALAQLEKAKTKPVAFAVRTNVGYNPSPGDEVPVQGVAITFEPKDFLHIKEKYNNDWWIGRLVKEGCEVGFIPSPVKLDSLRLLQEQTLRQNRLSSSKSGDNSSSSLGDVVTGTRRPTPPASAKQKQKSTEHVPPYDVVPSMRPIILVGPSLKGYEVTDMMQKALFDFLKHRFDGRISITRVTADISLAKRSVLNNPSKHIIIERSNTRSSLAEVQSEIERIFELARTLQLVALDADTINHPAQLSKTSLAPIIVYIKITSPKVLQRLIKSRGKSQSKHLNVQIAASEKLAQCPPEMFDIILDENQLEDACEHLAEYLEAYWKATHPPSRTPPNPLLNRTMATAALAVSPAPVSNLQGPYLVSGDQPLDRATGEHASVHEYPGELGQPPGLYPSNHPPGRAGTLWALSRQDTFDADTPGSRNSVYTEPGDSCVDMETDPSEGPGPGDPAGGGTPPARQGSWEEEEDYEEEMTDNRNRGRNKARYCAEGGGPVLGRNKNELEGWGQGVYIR
Description: Recombinant human embryonal kidney cells (HEK293, ATCC) stably transfected with either N-type calcium channel (NTCC) subunits (α1b, α2δ, and ⊖3) or L-type calcium channel (LTCC) subunits (α1, α2δ, and β1) were routinely cultured in growth medium consisting of Dulbecco's Modified Eagles Medium containing 10% FBS, 100 U/mL penicillin, 100 μg/mL streptomycin, 4 mM L-glutamine, 500 μg/mL geneticin (G418), 20 μg/mL Blasticidin S (InVivogen, San Diego, Calif.) and 500 μg/mL zeocin (InVivogen).
FLIPR Calcium Mobilization Assay for L-Type Calcium Channel.
One day prior to performing this assay, HEK293 cells stably expressing recombinant rat L-type calcium channel (LTCC) subunits (α1c, α2δ, and β1) were trypsinized, then seeded on poly-D-lysine-coated 96-well clear-bottom black plates (Becton Dickinson, Franklin Lakes, N.J.) at 75,000 cells/well. On the day of the assay, the plates were washed with LTCC wash buffer (127 mM NaCl, 2 mM MgCl2, 700 μM NaH2PO4, 5 mM CaCl2, 5 mM NaHCO3, 8 mM HEPES, 10 mM glucose, pH 7.4), then loaded with 0.1 mL of LTCC wash buffer containing Fluo-4 (3 μM final concentration, Molecular Probes, Eugene, Oreg.). After 1 hour, the cells were washed with 0.1 mL LTCC wash buffer and resuspended in 0.05 mL LTCC assay buffer (same composition as LTCC wash buffer). Plates were then transferred to a FLIPR^96 for assay. The FLIPR measured basal Fluo-4 fluorescence for 15 seconds, then is added 0.05 mL of each compound tested diluted in LTCC assay buffer at final concentrations ranging from about 846 pM to about 17 μM. Fluo-4 fluorescence was then measured for 5 minutes. 0.1 mL KCl agonist dissolved in LTCC assay buffer was then added to the cells to produce a final concentration of 90 mM KCl, and fluorescence was measured for another 45 seconds. Data were collected over the entire time course and analyzed using Excel, Graph Pad Prism, or an in-house regression analysis software.

Structure (SMILES) | IC50 [1] | IC50 [2]
CC(C)CC(CC(=O)N1CCC(N(C(C)C)S(=O)(=O)c2cccc(C(F)(F)F)c2)CC1)NCCOCc1ccccc1 (centres unmarked) [N-{1-[3-(2-benzyloxy-ethylamino)-5-methyl-hexanoyl]-piperidin-4-yl}-N-isopropyl-3-trifluoromethyl-benzenesulfonamide] | 220 nM | 4480 nM
O=C(CC(=O)N1CCC(N(C2CC2)S(=O)(=O)c2cccc(C(F)(F)F)c2)CC1)Nc1ccc(F)cc1 [Compound 26, 3-{4-[Cyclopropyl-(3-trifluoromethylbenzenesulfonyl)amino]-piperidin-1-yl}-N-(4-fluorophenyl)-3-oxo-propionamide] | 440 nM | 3780 nM
CN(C1CCN(CC(=O)Nc2ccc(C(F)(F)F)cc2)CC1)S(=O)(=O)c1cccc(C(F)(F)F)c1 [Compound 60, 2-{4-[Methyl-(3-trifluoromethylbenzenesulfonyl)-amino]-piperidin-1-yl}-N-(4-trifluoromethylphenyl)acetamide] | 990 nM | > 20000 nM
CN(C1CCN(C(=O)Nc2cc(C(F)(F)F)cc(C(F)(F)F)c2)CC1)S(=O)(=O)c1ccccc1 [Compound 112, (4-Benzenesulfonyl-methyl-amino)-piperidine-1-carboxylic acid (3,5-bis-trifluoromethylphenyl)-amide] | 640 nM | > 20000 nM
O=C(CN1CCC(N(C2CC2)S(=O)(=O)c2cccc(C(F)(F)F)c2)CC1)Nc1cncc(F)c1 [Compound 78, 2-{4-[Cyclopropyl-(3-trifluoromethylbenzenesulfonyl)amino]-piperidin-1-yl}-N-(5-fluoro-pyridin-3-yl)-acetamide] | 610 nM | > 20000 nM
CC(C)CNC(=O)CN1CCC(N(C(C)C)S(=O)(=O)c2cccc(C(F)(F)F)c2)CC1 [Compound 34, N-Isobutyl-2-{4-[isopropyl-(3-trifluoromethylbenzenesulfonyl)amino]-piperidin-1-yl}-acetamide] | 320 nM | 9080 nM
CCOc1cc(F)ccc1NC(=O)CN1CCC(N(C2CC2)S(=O)(=O)c2cccc(C(F)(F)F)c2)CC1 [Compound 70, 2-{4-[Cyclopropyl-(3-trifluoromethylbenzenesulfonyl)amino]-piperidin-1-yl}-N-(2-ethoxy-4-fluorophenyl)-acetamide] | 920 nM | > 20000 nM
CC(C)N(C1CCN(C(=O)C(N)Cc2ccc(OCc3ccccc3)cc2)CC1)S(=O)(=O)c1cccc(C(F)(F)F)c1 (centres unmarked) [N-{1-[2-amino-3-(4-benzyloxy-phenyl)-propionyl]-piperidin-4-yl}-N-isopropyl-3-trifluoromethyl-benzenesulfonamide] | 710 nM | 2380 nM
O=C(CN1CCC(N(C2CC2)S(=O)(=O)c2cccc(C(F)(F)F)c2)CC1)Nc1cc(F)cc(F)c1 [Compound 74, 2-{4-[Cyclopropyl-(3-trifluoromethylbenzenesulfonyl)amino]-piperidin-1-yl}-N-(3,5-difluorophenyl)-acetamide] | 370 nM | 6600 nM
CC(C)N(C1CCN(CC(=O)Nc2nc3ccc(F)cc3s2)CC1)S(=O)(=O)c1cccc(C(F)(F)F)c1 [Compound 42i, N-(6-Fluorobenzothiazol-2-yl)-2-{4-[isopropyl-(3-trifluoromethylbenzenesulfonyl)amino]-piperidin-1-yl}-acetamide] | 670 nM | > 20000 nM
CC(C)CC(O)C(=O)N1CCC(N(C(C)C)S(=O)(=O)c2cccc(C(F)(F)F)c2)CC1 (centres unmarked) [N-[1-(2-hydroxy-4-methyl-pentanoyl)-piperidin-4-yl]-N-isopropyl-3-trifluoromethyl-benzenesulfonamide] | 950 nM | 5490 nM

Next, values leading:

IC50 [1] | IC50 [2] | Structure (SMILES)
530 nM | 3220 nM | CC(C)N(C1CCN(C(=O)CCNc2ccc(F)cc2)CC1)S(=O)(=O)c1cccc(C(F)(F)F)c1 [N-{1-[3-(4-fluoro-phenylamino)-propionyl]-piperidin-4-yl}-N-isopropyl-3-trifluoromethyl-benzenesulfonamide]
900 nM | > 20000 nM | CC(C)N(C1CCN(C(=O)CCNc2cccc(Cl)c2)CC1)S(=O)(=O)c1cccc(C(F)(F)F)c1 [N-{1-[3-(3-chloro-phenylamino)-propionyl]-piperidin-4-yl}-N-isopropyl-3-trifluoromethyl-benzenesulfonamide]
460 nM | > 20000 nM | Cc1cccc(C)c1NCCC(=O)N1CCC(N(C(C)C)S(=O)(=O)c2cccc(C(F)(F)F)c2)CC1 [N-{1-[3-(2,6-dimethyl-phenylamino)-propionyl]-piperidin-4-yl}-N-isopropyl-3-trifluoromethyl-benzenesulfonamide]
420 nM | 10000 to 20000 nM | COc1cccc(NCCC(=O)N2CCC(N(C(C)C)S(=O)(=O)c3cccc(C(F)(F)F)c3)CC2)c1 [N-isopropyl-N-{1-[3-(3-methoxy-phenylamino)-propionyl]-piperidin-4-yl}-3-trifluoromethyl-benzenesulfonamide]
630 nM | > 20000 nM | CC(C)c1ccc(NC(=O)CN2CCC(N(C(C)C)S(=O)(=O)c3cccc(C(F)(F)F)c3)CC2)cc1 [Compound 42f, N-(4-Isopropylphenyl)-2-{4-[isopropyl-(3-trifluoromethylbenzenesulfonyl)amino]-piperidin-1-yl}-acetamide]
420 nM | 7480 nM | CC(C)N(C1CCN(C(=O)CCN(C)Cc2ccccc2)CC1)S(=O)(=O)c1cccc(C(F)(F)F)c1 [N-{1-[3-(benzyl-methyl-amino)-propionyl]-piperidin-4-yl}-N-isopropyl-3-trifluoromethyl-benzenesulfonamide]
330 nM | > 20000 nM | CC(C)N(C1CCN(CC(=O)N(C)c2ccc(F)cc2)CC1)S(=O)(=O)c1cccc(C(F)(F)F)c1 [Compound 42j, N-(4-Fluorophenyl)-2-{4-[isopropyl-(3-trifluoromethyl-benzenesulfonyl)amino]-piperidin-1-yl}-N-methyl-acetamide]
700 nM | 10000 to 20000 nM | COc1ccc(CNCC(=O)N2CCC(N(C(C)C)S(=O)(=O)c3cccc(C(F)(F)F)c3)CC2)cc1 [Compound 94, N-Isopropyl-N-{1-[2-(4-methoxy-benzylamino)acetyl]-piperidin-4-yl}-3-trifluoromethylbenzenesulfonamide]
670 nM | > 20000 nM | COc1ccccc1NC(=O)CCN1CCC(N(C(C)C)S(=O)(=O)c2cccc(C(F)(F)F)c2)CC1 [Compound 107b, 3-{4-[Isopropyl-(3-trifluoromethylbenzenesulfonyl)amino]-piperidin-1-yl}-N-(2-methoxyphenyl)-propionamide]
450 nM | > 20000 nM | Cc1cccc(NC(=O)CN2CCC(N(C(C)C)S(=O)(=O)c3cccc(C(F)(F)F)c3)CC2)c1 [Compound 42d, 2-{4-[Isopropyl-(3-trifluoromethylbenzenesulfonyl)amino]-piperidin-1-yl}-N-m-tolyl-acetamide]
820 nM | > 20000 nM | COc1cc(NCCC(=O)N2CCC(N(C(C)C)S(=O)(=O)c3cccc(C(F)(F)F)c3)CC2)cc(OC)c1 [N-{1-[3-(3,5-dimethoxy-phenylamino)-propionyl]-piperidin-4-yl}-N-isopropyl-3-trifluoromethyl-benzenesulfonamide]
320 nM | 4300 nM | COc1ccc(CNCCC(=O)N2CCC(N(C(C)C)S(=O)(=O)c3cccc(C(F)(F)F)c3)CC2)cc1 [N-isopropyl-N-{1-[3-(4-methoxy-benzylamino)-propionyl]-piperidin-4-yl}-3-trifluoromethyl-benzenesulfonamide]
370 nM | 3800 nM | COc1ccccc1NCCC(=O)N1CCC(N(C(C)C)S(=O)(=O)c2cccc(C(F)(F)F)c2)CC1 [N-isopropyl-N-{1-[3-(2-methoxy-phenylamino)-propionyl]-piperidin-4-yl}-3-trifluoromethyl-benzenesulfonamide]
310 nM | 10000 to 20000 nM | COc1cccc(NCCC(=O)N2CCC(N(C(C)C)S(=O)(=O)c3cccc(C(F)(F)F)c3)CC2)c1OC [N-{1-[3-(2,3-dimethoxy-phenylamino)-propionyl]-piperidin-4-yl}-N-isopropyl-3-trifluoromethyl-benzenesulfonamide]
